This is an account of results in patent US7037962B2, “Composition and process for enhancing bio-mass production in greenhouses” (Ciba Specialty Chemicals Corp., priority 2002, dated 2006).

The assay deals with Carnation. The assay is described as follows: Growth of carnation in greenhouses covered with the film. The format is in vivo. Particulars: 1% compound 100 in Film A versus Film B. How it is done: A three layer LDPE/EVA industrial film is prepared by blow molding having the following structure: 200μ thickness, 50μ EVA 5%, 100μ EVA 14% and 50μ EVA 5%. […] Agricultural Tests Two cultivars, namely ‘Jack’ and ‘Samuela’, have been grown under two greenhouses one with film A and the other with film B. The cultivation started on the 18 Sep. 2001 and harvesting started on the 3, Oct. 2001. The cultivation conditions are the standard conditions used in the region.

`CN(C)c1ccc(C=C2C(=O)NC(=O)NC2=O)cc1` [compound 100, condensation product of 4-dimethylaminobenzaldehyde and barbituric acid]: the “effect on the production and quality of carnation” value is reported as “evident”.
